{"source": "patent US20240307453A1", "about": "“METHODS FOR CONTROLLING BLEEDING IN A SUBJECT AFFLICTED WITH HERMANSKY PUDLAK SYNDROME USING PLATELET DERIVATIVE COMPOSITIONS” (Cellphire, Inc., priority 2023, published 2024)", "key": {"[1]": {"target": "T1, FXa (Homo sapiens, UniProt P00742)", "T1 construct": "tissue Octophrama (so in the source); host or cells: Octaplas plasma mixed with FPH", "T1 sequence (P00742 235-488 limits assumed)": "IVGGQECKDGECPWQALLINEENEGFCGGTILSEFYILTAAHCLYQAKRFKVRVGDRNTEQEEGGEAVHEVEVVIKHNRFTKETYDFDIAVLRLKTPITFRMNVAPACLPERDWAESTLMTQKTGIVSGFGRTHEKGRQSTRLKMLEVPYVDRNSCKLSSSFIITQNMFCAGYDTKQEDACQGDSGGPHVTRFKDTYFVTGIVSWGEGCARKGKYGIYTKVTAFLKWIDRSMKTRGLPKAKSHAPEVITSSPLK", "T1 sequence (P00742 41-179 limits assumed)": "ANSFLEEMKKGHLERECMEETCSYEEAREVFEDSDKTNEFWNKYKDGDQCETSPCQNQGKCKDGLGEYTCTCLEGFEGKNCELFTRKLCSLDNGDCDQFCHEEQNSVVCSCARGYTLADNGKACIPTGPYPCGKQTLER", "assay": "FPH thrombin generation response to Factor X blocking by rivaroxaban", "type": "biochemical", "settings": "dose dependent blocking of Factor X", "procedure": "Rivaroxaban (Cayman Chemical, caymanchem.com) was diluted in TGA dilution buffer to 0 μg/ml, […], 350 ng/ml, and 70 ng/ml. 60 mM GPRP (BACHEM, bachem.com), thrombin (Sigma Aldrich, sigmaaldrich.com) and Octoplas (Octophrama, octopharma.com) were thawed according to manufacturer's guidelines. CLARIOstarPlus was used to perform TGA. A master mix of Octaplas, PRP reagent (Diagnostica Stago, Cat. No. 86196), and GPRP was prepared in a ratio of 68:15:5, respectively. Flu substrate and Fluo-buffer were combined according to manufacturer's guidelines to create FluCa (Diagnostica Stago, stago.com). Master mix and FluCa solution were placed in the 37° C. air incubator with agitation for 45±5 minutes. […] 10 μl of each sample was dispensed into selected wells of a 96-well plate (Corning, corning.com) by reverse pipetting. TGA dilution buffer for thrombin was used in the thrombin standard ladder. […] CLARIOstarPlus injectors 1 and 2 were primed with master mix and FluCa solution with 250 μl, then the injector was placed in the active position. The CLARIOstarPlus TGA program was loaded with parameters for TGA assay with injectors set to add 90 μl of master mix and 40 μl of FluCa solution to each well. Plate was inserted to be read."}, "[2]": {"target": "T2, GpIIbIIa receptor (Homo sapiens, UniProt P05106+P08514)", "T2 construct": "endogenous in cells; host or cells: FPH (freeze-dried human platelet derivatives); in A8 also washed platelets from healthy donors", "assay": "Mixed aggregation of washed FPH with washed platelets with and without RGDS", "type": "cell-based", "settings": "1 mM RGDS", "procedure": "For one of the replicates of each, RGDS was added to achieve a 1 mM concentration. […] The mixture was prepared immediately prior to running on the PAP-8E Platelet Aggregometer. PAP-8E was turned on and samples were incubated with stirring for 10 minutes at 37° C. and HMTA was used as a control for collagen agonist used in aggregation. Stir bars were added to cuvettes and 225 μl of sample was added to cuvettes by reverse pipetting and inserted into channels. Cuvettes were then transferred from warming wells to the testing wells. Run was started for each channel with 10 seconds in between. 25 μl of collagen (Helena Biosciences, helenabiosciences.com) was added to appropriate cuvettes when the timer for the channel reached 8:00 minutes. HMTA was added in place of the agonist to the first channel as a control. After measurement was completed for collagen agonist, each sample was transferred to a microcentrifuge tube and AcT count was taken."}, "[3]": {"system": "FPH aggregation (GpIIbIIIa)", "settings": "5 mM MgCl2, FPH 250 k/μL, tirofiban present", "quoted_text": "A master mix of FPH or APU was prepared by combining cells dosed at 250 k/μL with HMTA to arrive at enough volume to fill 225 μl of sample into 8 cuvettes, plus extra buffer volume if necessary. 225 μl of master mix was transferred to cuvettes as specified along with a magnetic stir bar in each cuvette. […] The groups tested were as follows. (+) indicates the presence while (−) indicates the absence of the specified reagent: • 0.32 mM DMSO−/5 mM Mg−/1 mM Tiro− (negative control) • 0.32 mM DMSO+/5 mM Mg−/1 mM Tiro− (negative control) • 0.32 mM DMSO−/5 mM Mg+/1 mM Tiro− (positive control) • 0.32 mM DMSO+/5 mM Mg+/1 mM Tiro− (positive control) • 0.32 mM DMSO+/5 mM Mg−/1 mM Tiro− (#of samples=2) • 0.32 mM DMSO+/5 mM Mg−/1 mM Tiro− (#of samples=2)"}, "[4]": {"system": "fibrinogen, GPIIIa (CD61), complexed GPIIb/IIIa (CD41)", "settings": "5 mM EDTA", "procedure": "EDTA (Sigma Aldrich, sigmaaldrich.com) was added to one of the duplicates to achieve a 5 mM concentration. […] Stain volumes were as follows: Unstained: 10 μl of sample and 20 μl HMTA, 9F9: 10 μl of sample, 5 μl antibody, and 15 μl HMTA, CD41: 5 μl of sample and 12 μl antibody, and CD61: 10 μl of sample, 10 μl antibody, and 10 μl HMTA. Stained samples were incubated for 20 minutes for 9F9, CD61, and vWF and 5 minutes for CD41. 470 μl of the samples were added to 9F9 and CD61 stains and 233 μl of the samples were added to CD41 stains. 100 μl of each sample was transferred to wells in a 96-well plate. All samples were measured using the Quanteon flow cytometer."}, "[5]": {"system": "washed platelets (WPS)", "assay": "Mixed aggregation of washed FPH with washed platelets (WPS) with and without EDTA and agonists", "type": "cell-based, human", "settings": "5 mM EDTA", "procedure": "This was repeated 5 times. […] In one of the duplicates, EDTA was added to achieve a 5 mM concentration. […] These samples were prepared immediately prior to running on the PAP-8E Platelet Aggregometer. The different agonist were prediluted in HMTA according: arachidonic acid (Helena Biosciences, Helena-biosciences.com) 1:10 in HMTA, TRAP-6 (Tocris, tocris.com) by adding 7.5 μl to 292.5 μl HMTA.\nThe PAP-8E Platelet Aggregometer was turned on and samples were incubated with stirring for 10 minutes at 37° C. for all mixed aggregation experiments. The samples with HMTA was used as a control for agonists used in aggregation. The following agonists were used to induce aggregation in samples: 10 μg/ml collagen (Helena Biosciences, Helena-biosciences.com), 10U/ml thrombin (Helena Biosciences, Helena-biosciences.com), 10 μg/ml arachidonic acid, and 10 μM TRAP-6. 225 μl of the samples were added to cuvettes by reverse pipetting and inserted in the channels. Cuvettes were transferred from the warming wells to the testing wells. The test was started and 25 μl of each agonist was added to the appropriate cuvettes when the timer for the channel reached 8:00 minutes. HMTA was added in place of the agonist to the first channel in each module. Once measurements were completed for each agonist, the samples were transferred to a microcentrifuge tube and AcT count was taken. […]"}, "[6]": {"target": "T3, fibrinogen on the surface of FPH (Homo sapiens, UniProt P02671+P02675+P02679)", "T3 construct": "endogenous in cells; host or cells: washed FPH (freeze-dried human platelet derivatives)", "T3 sequence (P02671 20-629 limits assumed)": "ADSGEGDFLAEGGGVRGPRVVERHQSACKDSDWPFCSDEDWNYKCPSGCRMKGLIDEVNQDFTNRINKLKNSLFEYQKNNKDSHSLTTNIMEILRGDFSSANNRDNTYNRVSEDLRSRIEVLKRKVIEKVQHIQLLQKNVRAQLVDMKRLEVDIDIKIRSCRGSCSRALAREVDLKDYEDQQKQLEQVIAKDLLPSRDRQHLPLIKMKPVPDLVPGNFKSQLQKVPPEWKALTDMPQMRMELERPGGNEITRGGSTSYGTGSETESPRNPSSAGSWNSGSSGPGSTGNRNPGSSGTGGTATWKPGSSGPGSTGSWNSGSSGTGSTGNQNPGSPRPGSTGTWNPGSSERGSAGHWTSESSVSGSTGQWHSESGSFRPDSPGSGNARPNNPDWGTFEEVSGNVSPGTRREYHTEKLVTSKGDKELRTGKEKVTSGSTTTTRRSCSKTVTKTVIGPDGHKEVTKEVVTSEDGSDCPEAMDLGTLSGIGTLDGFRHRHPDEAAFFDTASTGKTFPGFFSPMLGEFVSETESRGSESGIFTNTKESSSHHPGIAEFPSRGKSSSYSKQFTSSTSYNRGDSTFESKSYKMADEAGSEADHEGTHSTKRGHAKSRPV", "T3 sequence (P02675 31-491)": "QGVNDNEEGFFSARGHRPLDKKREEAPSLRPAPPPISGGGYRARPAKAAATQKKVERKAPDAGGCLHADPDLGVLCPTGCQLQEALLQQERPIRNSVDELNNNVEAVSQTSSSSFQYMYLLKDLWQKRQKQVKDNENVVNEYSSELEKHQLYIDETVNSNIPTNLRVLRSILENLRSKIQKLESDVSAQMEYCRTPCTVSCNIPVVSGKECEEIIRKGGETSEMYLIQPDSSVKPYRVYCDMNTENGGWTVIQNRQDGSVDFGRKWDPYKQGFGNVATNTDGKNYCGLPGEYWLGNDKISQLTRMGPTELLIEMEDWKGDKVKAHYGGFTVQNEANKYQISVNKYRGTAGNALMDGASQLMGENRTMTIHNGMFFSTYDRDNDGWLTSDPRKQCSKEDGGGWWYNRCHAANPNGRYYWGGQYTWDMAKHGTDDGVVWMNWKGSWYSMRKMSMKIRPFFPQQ", "T3 sequence (P02679 27-453)": "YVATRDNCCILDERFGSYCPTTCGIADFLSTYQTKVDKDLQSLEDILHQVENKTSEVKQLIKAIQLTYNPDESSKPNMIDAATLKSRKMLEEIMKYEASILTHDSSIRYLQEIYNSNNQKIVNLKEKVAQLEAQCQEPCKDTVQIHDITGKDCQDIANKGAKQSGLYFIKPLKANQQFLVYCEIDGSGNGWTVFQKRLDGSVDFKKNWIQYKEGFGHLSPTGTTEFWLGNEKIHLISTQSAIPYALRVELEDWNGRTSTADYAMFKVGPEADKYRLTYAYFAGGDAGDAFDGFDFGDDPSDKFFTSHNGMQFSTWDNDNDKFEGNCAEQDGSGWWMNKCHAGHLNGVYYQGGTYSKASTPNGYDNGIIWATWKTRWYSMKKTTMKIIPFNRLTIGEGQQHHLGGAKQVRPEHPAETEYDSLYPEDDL", "assay": "Surface marker detection of washed FPH at different plasmin concentrations", "type": "cell-based", "settings": "0, 1.46, 2.92, 14.6, 29.2 nkat/ml plasmin, 1 hour"}, "[7]": {"system": "FPH aggregation (surface fibrinogen)", "assay": "MgCl2 aggregation dose response after plasmin treatment of FPH", "type": "cell-based, human", "settings": "0, 2, 5, 10 mM MgCl2, plasmin 1 hour", "procedure": "Both master mixes were incubated at room temperature with agitation for 1 hour. […] Magnetic stir bars were placed in all the cuvettes. […] Each concentration of MgCl2 to be tested was prepared in duplicate. […] Plasmin causes the breakdown of fibrinogen."}, "[8]": {"system": "aggregation of washed FPH with washed platelets", "assay": "Mixed aggregation of washed FPH with washed platelets with and without plasmin", "type": "cell-based, human", "settings": "plasmin-treated washed FPH mixed with WPS", "procedure": "This was repeated for optimal concentration of plasmin added based on flow results. To initiate spontaneous aggregation between the washed platelets and washed FPH the following steps were performed for the mixed samples. Stir bars were added to cuvettes, 225 μl of sample was added to the cuvettes by reverse pipetting and inserted into channels. The cuvettes were transferred from the warming wells to the testing wells. The run was started for each channel with 10 seconds in between. 25 μl of HMTA was added to all cuvettes once the timer for the channel reached 8:00 minutes. After measurements were completed, each sample was transferred to a microcentrifuge tube and AcT counts were taken."}, "[9]": {"settings": "washed FPH and washed platelets"}}, "data": [{"molecule": "O=C(NC[C@H]1CN(c2ccc(N3CCOCC3=O)cc2)C(=O)O1)c1ccc(Cl)s1", "note": "[Rivaroxaban]", "values": [{"measurement": "thrombin generation of FPH", "setting": "[1]", "result": "decreasing thrombin generation"}, {"measurement": "maximum peak time of thrombin generation of FPH", "setting": "[1]; 1:64 dilution", "result": "increasing maximum peak time"}]}, {"molecule": "Arg-Gly-Asp-Ser (RGDS; printed: Arg-Gly-Asp-Ser) [GpIIbIIa receptor antagonist RGDS peptide]", "values": [{"measurement": "effect on mixed aggregation of washed FPH and washed platelets", "setting": "[2]", "result": "inhibited aggregation"}, {"measurement": "fold lower platelet counts in untreated mixed sample in comparison to the treated mixed sample", "setting": "[2]", "result": "> 2", "unit": "fold"}]}, {"molecule": "CCCCS(=O)(=O)N[C@@H](Cc1ccc(OCCCCC2CCNCC2)cc1)C(=O)O", "note": "[tirofiban]", "values": [{"measurement": "effect on divalent cation induced aggregation of FPH", "setting": "[3]", "result": "abrogated"}]}, {"molecule": "O=C(O)CN(CCN(CC(=O)O)CC(=O)O)CC(=O)O", "note": "[EDTA]", "values": [{"measurement": "Bound fibrinogen with addition of EDTA", "setting": "[4]; washed FPH", "result": "decreases slightly"}, {"measurement": "CD61 (GpIIIa) signal with addition of EDTA", "setting": "[4]; [9]", "result": "decreased slightly"}, {"measurement": "drop in the GpIIbIIIa complex (CD41) with addition of EDTA", "setting": "[4]; [9]", "result": "more than half"}, {"measurement": "effect on aggregation between washed FPH and washed platelets", "setting": "[5]", "result": "prevents aggregation"}]}, {"molecule": "plasmin: Plasmin causes the breakdown of fibrinogen (protein, UniProt P00747 20-580; P00747 581-810, looked up, Plasmin, Plasmin causes the breakdown of fibrinogen) Plasmin heavy chain A: EPLDDYVNTQGASLFSVTKKQLGAGSIEECAAKCEEDEEFTCRAFQYHSKEQQCVIMAENRKSSIIIRMRDVVLFEKKVYLSECKTGNGKNYRGTMSKTKNGITCQKWSSTSPHRPRFSPATHPSEGLEENYCRNPDNDPQGPWCYTTDPEKRYDYCDILECEEECMHCSGENYDGKISKTMSGLECQAWDSQSPHAHGYIPSKFPNKNLKKNYCRNPDRELRPWCFTTDPNKRWELCDIPRCTTPPPSSGPTYQCLKGTGENYRGNVAVTVSGHTCQHWSAQTPHTHNRTPENFPCKNLDENYCRNPDGKRAPWCHTTNSQVRWEYCKIPSCDSSPVSTEQLAPTAPPELTPVVQDCYHGDGQSYRGTSSTTTTGKKCQSWSSMTPHRHQKTPENYPNAGLTMNYCRNPDADKGPWCFTTDPSVRWEYCNLKKCSGTEASVVAPPPVVLLPDVETPSEEDCMFGNGKGYRGKRATTVTGTPCQDWAAQEPHRHSIFTPETNPRAGLEKNYCRNPDGDVGGPWCYTTNPRKLYDYCDVPQCAAPSFDCGKPQVEPKKCPGR Plasmin light chain B: VVGGCVAHPHSWPWQVSLRTRFGMHFCGGTLISPEWVLTAAHCLEKSPRPSSYKVILGAHQEVNLEPHVQEIEVSRLFLEPTRKDIALLKLSSPAVITDKVIPACLPSPNYVVADRTECFITGWGETQGTFGAGLLKEAQLPVIENKVCNRYEFLNGRVQSTELCAGHLAGGTDSCQGDSGGPLVCFEKDKYILQGVTSWGLGCARPNKPGVYVRVSRFVTWIEGVMRNN", "values": [{"measurement": "effect on fibrinogen on the surface of FPH", "setting": "[6]", "result": "degrades fibrinogen on the surface of FPH"}, {"measurement": "FPH aggregation response to MgCl2 after plasmin treatment", "setting": "[7]", "result": "no dose dependent response"}, {"measurement": "effect on aggregation of washed FPH with washed platelets", "setting": "[8]", "result": "inhibits the aggregation"}]}]}
